In ChEMBL document CHEMBL3352147, “Synthesis and structure-activity relationship of 4-azaheterocycle benzenesulfonamide derivatives as new microtubule-targeting agents” (Bioorg Med Chem Lett, 2014) one finds IC50 and inhibition data, which are given here for 21 compounds.

Calls of active or inactive are those of the source. The calls are words filed in the database; no cut-off is given here.

Data set [1] in a line: Antiproliferative activity against human HCT116 cells assessed as inhibition of cell proliferation by MTT assay. The data set is classed as functional, cell-based. The conditions noted are these: HCT-116. On the technique in general: Formazan colour is commonly taken as a measure of viable cells.
Data set [2] is described as follows: Antiproliferative activity against human SKOV3 cells assessed as inhibition of cell proliferation by MTT assay. It counts as functional, cell-based. The conditions noted are these: SK-OV-3.
In data set [3] the test system is HepG2. Put plainly: Antiproliferative activity against human HepG2 cells assessed as inhibition of cell proliferation by MTT assay. The data set is classed as functional, cell-based.
Data set [4] in a line: Antiproliferative activity against HEK293T cells assessed as inhibition of cell proliferation at 10 uM by MTT assay. The conditions noted are these: human. The data set is classed as cell-based, HEK-293T.
Data set [5] is described as follows: Antiproliferative activity against human PC3 cells assessed as inhibition of cell proliferation by MTT assay. The data set is classed as functional, cell-based. The conditions noted are these: PC-3.
Data set [6] in a line: Antiproliferative activity against human BGC823 cells assessed as inhibition of cell proliferation at 10 uM by MTT assay. The data set is classed as functional. The conditions noted are these: BGC-823.
For data set [7], the system named is A549. In words: Antiproliferative activity against human A549 cells assessed as inhibition of cell proliferation at 10 uM by MTT assay. The data set is classed as functional.
In data set [8] the test system is Jurkat. In words: Antiproliferative activity against human Jurkat cells assessed as inhibition of cell proliferation at 10 uM by MTT assay. It counts as functional.
Data set [9] deals with T1, Tubulin alpha (Homo sapiens) (UniProt P0DPH7+P68366+Q71U36+P68363+Q9BQE3+Q6PEY2+A6NHL2+Q9NY65). In words: Inhibition of tubulin alpha in human LoVo cells assessed as effect on tubulin intensity level at 20 nM. The data set is classed as cell-based.
Data set [10] concerns the target T1, Tubulin alpha (Homo sapiens). In words: Inhibition of tubulin alpha in human LoVo cells assessed as effect on microtubule spindles at 100 nM after 24 hrs. It counts as cell-based.
For data set [11] the target is unchanged. Put plainly: Inhibition of tubulin alpha in human LoVo cells assessed as effect on tubulin intensity level at 100 nM. It counts as cell-based.
For data set [12] the target is unchanged. In words: Inhibition of tubulin alpha in human LoVo cells assessed as effect on microtubule spindles at 20 nM after 24 hrs. The data set is classed as cell-based.

As a reminder, the IC50 is the concentration at which inhibition is half-maximal. `O=S(=O)(c1ccc(-c2cnc(C3CC3)o2)cc1Cl)N1CCc2ccccc21`: the IC50 in data set [1] was 422 nM; in data set [2], 220 nM; in data set [3] it was 2180 nM.
One may read the inhibition as the relative decrease from the control value, in per cent. Consider `O=S(=O)(c1ccc(-c2cnc(C3CC3)o2)cc1)N1CC2(CCCCC2)c2ccccc21`, for which the IC50 in data set [1] was 6130 nM; in [5] it was 6580 nM; in [2], 5200 nM; in data set [3], 13600 nM. Also, the inhibition at 10 µM worked out at 76% in data set [4], 84.1% in [6], 58.4% in data set [7] and 94.8% in data set [8].
With `O=S(=O)(c1ccc(-c2cnc(C3CC3)o2)cc1)N1CCCCC1`, the IC50 in data set [1], in data set [5], in data set [2] and in data set [3] was more than 100000 nM each time.
In the case of `O=S(=O)(c1ccc(-c2cnc(C3CC3)o2)cc1)n1ccc2ccccc21`, the inhibition at 10 µM in data set [4] amounted to 10.9%; in data set [6], 37.9%; in [7] it was 77.6%; in data set [8], 13.9%.
In the case of `O=S(=O)(c1ccc(-c2cnc(C3CC3)s2)cc1)N1CCc2ccccc21`, the inhibition at 10 µM is -15.4% in data set [4], 38.5% in data set [6], -10.1% in data set [7] and 29.8% in data set [8].
For the compound `O=[N+]([O-])c1ccc2c(c1)CCN2S(=O)(=O)c1ccc(-c2cnc(C3CC3)o2)cc1`, the IC50 in [1] is 1190 nM; in data set [5], 1920 nM; in data set [2] it was 1300 nM; in data set [3], 1650 nM. In addition, the inhibition at 10 µM in [4] was 48.4%; in [6], 87.5%; in [7] it was 73.1%; in [8] it was 92.4%.
Turning to `O=S(=O)(c1ccc(-c2cnc(C3CC3)o2)cc1)N1CCc2ccc(Cl)cc21`, the IC50 in [1] came to 255 nM; in data set [5] it was 138 nM; in [2], 144 nM; in data set [3], 248 nM. In addition, the inhibition at 10 µM in [4] amounted to 71.9%; in [6], 87.4%; in data set [7] it was 63.6%; in [8], 95.5%.
Turning to `COc1ccc2c(c1)CCN2S(=O)(=O)c1ccc(-c2cnc(C3CC3)o2)cc1`, the IC50 in [1] worked out at 112 nM; in data set [5], 82 nM; in data set [2] it was 39 nM; in data set [3], 55 nM. For the same compound, the inhibition entry in data set [9], in data set [10], in data set [11] and in [12] was “Active” in each case.
Take `CC1Cc2ccccc2N1S(=O)(=O)c1ccc(-c2cnc(C3CC3)o2)cc1` (stereo unspecified): the IC50 was determined as 14400 nM in [1], 20500 nM in [5], 12400 nM in data set [2] and 16800 nM in [3]. Besides, the inhibition at 10 µM in data set [4] is 61.3%; in [6], 81.8%; in data set [7] it was 52.4%; in data set [8], 89.9%.
For the compound `Cc1ccc2c(c1)CCN2S(=O)(=O)c1ccc(-c2cnc(C3CC3)o2)cc1`, the IC50 in data set [1] was 233 nM; in [5], 189 nM; in data set [2], 201 nM; in [3], 295 nM. Also, the inhibition at 10 µM turned out to be 74.7% in data set [4], 79.1% in data set [6], 63.4% in [7] and 91.1% in [8].
As to `O=S(=O)(c1ccc(-c2cnc(C3CC3)o2)cc1F)N1CCc2ccccc21`, the values for the IC50 in data set [1], in data set [2] and in [3] were 168 nM, 139 nM and 18700 nM, respectively.
On the same counts, the results for `C=Cc1ncc(-c2ccc(S(=O)(=O)N3CCc4ccccc43)cc2)o1` are 1330 nM, 1130 nM and 25800 nM.
As to `O=S(=O)(c1ccc(-c2cnc(C3CC3)o2)cc1)N1CCCc2ccccc21`, the inhibition result in data set [9], in data set [10], in [11] and in data set [12] was “Active” in each case.
In the case of `CCc1ncc(-c2ccc(S(=O)(=O)N3CCc4ccccc43)cc2)o1`, the IC50 in data set [1] is 309 nM; in data set [2] it was 154 nM; in data set [3], more than 100000 nM.
Regarding `O=S(=O)(c1ccc(-c2nnc(C3CC3)o2)cc1)N1CCc2ccccc21`, the inhibition at 10 µM in data set [4] is -13.8%; in data set [6], 27.7%; in data set [7] it was 63.7%; in [8], 31.7%.
For `O=S(=O)(c1ccc(-c2cnc(C3CC3)o2)cc1)N1CCc2cc(F)ccc21`, in that order: 25.7%, 18.3%, 36.1% and 24.3%.
As to `O=S(=O)(c1ccc(-c2cnc(C3CC3)o2)cc1)N1CCc2ccccc21`, the IC50 in data set [1] came out at 105 nM; in [5] it was 62 nM; in [2], 55 nM; in [3], 58 nM. The inhibition entry in data set [9], in data set [10], in data set [11] and in data set [12] was “Active” each time.
Turning to `O=[N+]([O-])c1ccc2c(c1)N(S(=O)(=O)c1ccc(-c3cnc(C4CC4)o3)cc1)CC2`, the IC50 in data set [1] is 181 nM; in data set [5], 14 nM; in data set [2], 114 nM; in data set [3], 273 nM. Further, the inhibition at 10 µM in [4] was determined as 77.8%; in [6], 97.7%; in data set [7], 50.3%; in [8] it was 96.7%.
Take `CS(=O)(=O)c1ccc2c(c1)CCN2S(=O)(=O)c1ccc(-c2cnc(C3CC3)o2)cc1`: the inhibition at 10 µM in [4] came to 6.54%; in [6] it was 28.3%; in data set [7] it was 4.14%; in data set [8], 13%.
Take `O=c1[nH]n(S(=O)(=O)c2ccc(-c3cnc(C4CC4)o3)cc2)c2ccccc12`: the IC50 in data set [1] turned out to be 812 nM; in data set [5] it was 1460 nM; in [2], 474 nM; in [3], 1010 nM. In addition, the inhibition at 10 µM in data set [4] was found to be 80.9%; in data set [6] it was 83.7%; in [7], 66.5%; in data set [8], 94.7%.
Turning to `N#Cc1ccc2c(c1)CCN2S(=O)(=O)c1ccc(-c2cnc(C3CC3)o2)cc1`, the inhibition at 10 µM was determined as 37.4% in data set [4], 29.6% in data set [6], 28.4% in [7] and 15.8% in data set [8].
